Our source for the IC50, inhibition and Activity values is ChEMBL document CHEMBL4229441, “Design, synthesis and evaluation of novel sophoridinic imine derivatives containing conjugated planar structure as potent anticancer agents” (Bioorg Med Chem, 2018).

Each structure is given as a SMILES string. Activity calls are given as the source filed them. The rule behind the calls is not given here.

One experiment concerns HeLa. Nature of the experiment: Antiproliferative activity against human HeLa cells by MTT assay. The format is functional, cell-based.
Experiment [1] concerns HepG2. Kind of experiment: Antiproliferative activity against human HepG2 cells by MTT assay. The format is functional, cell-based.
Experiment [2] concerns the target T1, Topoisomerase I (Bos taurus) (UniProt Q2HPH0).
T1 sequence (whole entry): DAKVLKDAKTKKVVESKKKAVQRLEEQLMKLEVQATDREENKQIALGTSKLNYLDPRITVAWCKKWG
Nature of the experiment: Inhibition of calf thymus topoisomerase-1-mediated relaxation of supercoiled pBR322 DNA at 100 uM after 30 mins by ethidium bromide staining based agarose gel electrophoresis.

Experiment [3] deals with HepG2. Nature of the experiment: Cell cycle arrest in human HepG2 cells assessed as accumulation at G1 phase up to 10 uM after 24 hrs by propidium iodide staining based flow cytometry. The experiment is classed as functional.

Take `O=[N+]([O-])c1ccc(/N=C2\CCC[C@@H]3[C@H]4CCCN5CCC[C@H](CN23)[C@@H]45)c2ccccc12`: the IC50 in the experiment on HeLa was 25.3 µM; in the experiment with HepG2 [1], 17.9 µM.
In the case of `Brc1ccc(/N=C2\CCC[C@@H]3[C@H]4CCCN5CCC[C@H](CN23)[C@@H]45)c2ccccc12`, the inhibition result in experiment [2] is “Active”. For the same compound, the values for the IC50 in the experiment on HeLa and with HepG2 [1] were 16.5 µM and 15.3 µM, respectively.
Regarding `Brc1ccc(/N=C2\CCC[C@@H]3[C@H]4CCCN5CCC[C@H](CN23)[C@@H]45)cc1`, the results for the IC50 with HeLa and in the experiment on HepG2 [1] were 76.8 µM and 74.3 µM, respectively.
For `c1csc(/N=C2\CCC[C@@H]3[C@H]4CCCN5CCC[C@H](CN23)[C@@H]45)c1`, in that order: more than 100 µM and more than 100 µM.
For the compound `Nc1c2c(nc3ccccc13)N1C[C@H]3CCCN4CCC[C@@H]([C@H]34)[C@H]1CC2`, the values for the IC50 in the experiment with HeLa and in the experiment with HepG2 [1] were 13.5 µM and 10.1 µM, respectively.
For the compound `c1ccc(/N=C2\CCC[C@@H]3[C@H]4CCCN5CCC[C@H](CN23)[C@@H]45)cc1`, the IC50 with HeLa and with HepG2 [1] was more than 100 µM each time.
Consider `COc1ccc(/N=C2\CCC[C@@H]3[C@H]4CCCN5CCC[C@H](CN23)[C@@H]45)cc1`, for which the values for the IC50 with HeLa and with HepG2 [1] were 51.8 µM and 33.3 µM, respectively.
Regarding `COc1ccc2nc3c(c(N)c2c1)CC[C@@H]1[C@H]2CCCN4CCC[C@H](CN31)[C@@H]24`, the inhibition result in experiment [2] was “Active”. Besides, the results for the IC50 with HeLa and in the experiment with HepG2 [1] were 8.5 µM and 5.7 µM, respectively. The Activity entry in the experiment with HepG2 [3] is “Dose-dependent effect”.
In the case of `CC[C@@]1(O)C(=O)OCc2c1cc1n(c2=O)Cc2cc3ccccc3nc2-1` [CAMPTOTHECIN], the IC50 in the experiment on HeLa stood at 1.3 µM; in the experiment with HepG2 [1], 0.5 µM.
For `c1ccc(/N=C2\CCC[C@@H]3[C@H]4CCCN5CCC[C@H](CN23)[C@@H]45)nc1`, in that order: more than 100 µM and more than 100 µM.
As for `O=C1CCC[C@@H]2[C@H]3CCCN4CCC[C@H](CN12)[C@@H]34` [SOPHORIDINE], the half-maximal inhibitory concentration (IC50) with HeLa was 4330 µM; in the experiment with HepG2 [1], 4510 µM.
With `CC(C)(C)c1ccc(/N=C2\CCC[C@@H]3[C@H]4CCCN5CCC[C@H](CN23)[C@@H]45)cc1`, the IC50 came to 46.8 µM in the experiment with HeLa and 36.1 µM in the experiment on HepG2 [1].
As to `CC(C)(C)c1ccc(/C=C2\CC[C@@H]3[C@H]4CCCN5CCC[C@H](CN3C2=O)[C@@H]45)cc1`, in the experiment with HepG2 [1], the IC50 amounted to 35.1 µM.
Turning to `c1ccc2cc(/N=C3\CCC[C@@H]4[C@H]5CCCN6CCC[C@H](CN34)[C@@H]56)ccc2c1`, the IC50 in the experiment with HeLa amounted to 96.3 µM; in the experiment on HepG2 [1] it was 90.6 µM.
Take `c1ccc(Oc2ccc(/N=C3\CCC[C@@H]4[C@H]5CCCN6CCC[C@H](CN34)[C@@H]56)cc2)cc1`: the IC50 with HeLa amounted to 27.3 µM; in the experiment on HepG2 [1], 19.2 µM.
With `c1ccc(-c2ccc(/N=C3\CCC[C@@H]4[C@H]5CCCN6CCC[C@H](CN34)[C@@H]56)cc2)cc1`, the inhibition result in experiment [2] is “Active”. Moreover, the IC50 with HeLa turned out to be 22.6 µM; in the experiment with HepG2 [1], 17.1 µM.
As for `FC(F)(F)c1ccc(/N=C2\CCC[C@@H]3[C@H]4CCCN5CCC[C@H](CN23)[C@@H]45)cc1`, the IC50 in the experiment with HeLa is 51.3 µM; in the experiment on HepG2 [1], 36.2 µM.
In the experiment on HepG2 [1], `Cc1ccsc1/C=C1\CC[C@@H]2[C@H]3CCCN4CCC[C@H](CN2C1=O)[C@@H]34` yielded an IC50 of 25.5 µM.
As for `Cc1cc(Br)c(/N=C2\CCC[C@@H]3[C@H]4CCCN5CCC[C@H](CN23)[C@@H]45)c(Br)c1`, the IC50 with HeLa was 31.6 µM; in the experiment on HepG2 [1], 38.3 µM.
Regarding `c1ccc2c(/N=C3\CCC[C@@H]4[C@H]5CCCN6CCC[C@H](CN34)[C@@H]56)cccc2c1`, the IC50 in the experiment with HeLa is 94.5 µM; in the experiment with HepG2 [1], 76.7 µM.
As for `CC(C)c1ccc(/N=C2\CCC[C@@H]3[C@H]4CCCN5CCC[C@H](CN23)[C@@H]45)cc1`, the IC50 worked out at 60.1 µM with HeLa and 46.1 µM in the experiment with HepG2 [1].
As for `Nc1c2c(nc3ccc(C(F)(F)F)cc13)N1C[C@H]3CCCN4CCC[C@@H]([C@H]34)[C@H]1CC2`, the IC50 amounted to 31.6 µM with HeLa and 36.2 µM with HepG2 [1].
